{
  "source": "patent US10471030B2",
  "about": "“Immunomodulatory and differentiating function selective retinoid and rexinoid compounds in combination with immune modulators for cancer immunotherapy” (Io Therapeutics, Inc., priority 2017, dated 2019)",
  "key": {"[1]": {"test_system": "MM H929 cell lines and MM CD138+ primary cells", "assay": "mRNA expression of B cell and PC markers in MM cells, liquid or BM stroma co-culture (qRT-PCR)", "type": "cell-based, human", "conditions": "1 μM for 5 days", "protocol": "24-well plates were coated with 0.1% gelatin in PBS for 30 min at 37° C. The gelatin solution was removed, and the stromal cells were cultured overnight at a density of 5×10^4 cells/well to obtain a confluent monolayer. At that time, MM cell lines or primary MM cells (1×10^5 in 2 ml) were added to the stroma cultures. The stroma cocultures were incubated at 37° C. in RPMI containing 10% FCS, L-glutamine, and P/S, with or without AGN194310 (1 μM for 5 days), R115866 (1 μM for 5 days), IRX5183 (1 μM for 5 days), or BTZ (2.5 nM for 48 hr).\nTotal RNA was extracted using the RNeasy Mini Kit (QIAGEN) according to the manufacturer's instructions. cDNA was synthesized by reverse transcription using the iScript cDNA Synthesis Kit (Bio-Rad). qRT-PCR was performed with iTaq SYBR Green Supermix (Bio-Rad) using sequence specific primers. Gene expression was normalized to GAPDH, and relative quantification was calculated using ΔΔCt. All experiments were performed in duplicate and run on the Bio-Rad CFX96 machine.\nThe BM microenvironment (also called “niche”) limits PC differentiation by modulating retinoid signaling. A population of MM progenitors, phenotypically similar to B cells, is intrinsically resistant to BTZ and contributes to MRD and relapse. To investigate whether the BM niche plays a role in determining the phenotype of MM cells, the mRNA expression of B cell and PC markers in MM H929 cell lines (FIGS. 3A-D) and MM CD138+ primary cells (FIGS. 3E-H) was analyzed following co-culture with mouse BM stroma using human-specific primers. […] In contrast, co-culture of MM cells with BM stroma decreased the mRNA expression of B lymphocyte-induced maturation protein 1 (BLIMP1) and spliced X box-binding protein 1 (XBP1s) (FIG. 3B, C, F, G), which are critical mediators of PC differentiation.\nThe BM niche regulates hematopoietic stem cell (HSC) differentiation by expressing the retinoid-inactivating enzyme CYP26. CYP26 enzymes were highly expressed in BM mesenchymal cells, while their expression was barely detectable in MM cells. Since retinoid signaling promotes PC differentiation and potentiates Ig secretion, it was determined whether stromal CYP26 is responsible for inducing a B cell phenotype in MM cells. To this end, co-culture conditions were treated with the CYP26 inhibitor R115866 (R115) or the CYP26-resistant RA receptor α-selective (RARα-selective) retinoid IRX5183 (IRX)."}, "H929 Luc+ cells": {"test_system": "H929 Luc+ cells", "assay": "subcutaneous xenograft model of MM-niche interactions with WT or Smo-KO stroma, bioluminescence", "type": "in vivo, NSG mice", "conditions": "IRX 10 mg/kg i.p. daily, BTZ 0.5 mg/kg i.p. twice weekly", "protocol": "1×10^6 H929 Luc+ cells and 1×10^6 mouse BM stromal cells were resuspended in 100 μl […]®, diluted with RPMI (1:1), and injected subcutaneously into 16-week-old male NSG mice. After 4 days, treatment with BTZ (0.5 mg/kg i.p. twice weekly) and IRX (10 mg/kg i.p. daily) was initiated. Tumor burden was assessed by bioluminescence using the In Vivo Imaging System (PerkinElmer). For imaging, mice were exposed to 120 mg/kg D-luciferin via intraperitoneal injection […] before imaging and were anesthetized using isoflurane. Images were analyzed with Living Image Software, version 2.5 (PerkinElmer), and data were quantified as photons/second.\nTo study to what extent an RA-low environment created by the BM stroma and enhanced by MM cells via paracrine Hedgehog signaling contributes to BTZ resistance, a xenograft model of MM-niche interactions was developed. Each mouse carried 2 subcutaneous tumors consisting of H929 Luc+ cells and either WT (anterior tumors) or Smo-KO stroma (posterior tumors). Mice were treated with IRX (10 mg/kg i.p. daily), BTZ (0.5 mg/kg i.p. twice weekly), or a combination of both. The growth of tumors bearing WT or Smo-KO stroma was not different in untreated or IRX-treated groups (FIGS. 9 and 10). […] While some tumors in the treatment group receiving combined IRX and BTZ appeared to have regressed completely, even after anatomical study, this was not the case for all the mice in this group."}},
  "data": [
    {"smiles": "CC1(C)CCC(C)(C)c2c1cc(C(=O)Nc1cc(F)c(C(=O)O)c(F)c1)c(O)c2Cl", "note": "[IRX5183]", "values": [
      {"measurement": "mRNA expression of BCL6, BLIMP1, XBP1s, CHOP markers", "setting": "[1]; BM stroma co-cultures", "value": "restored all markers to levels comparable to those of liquid control conditions"},
      {"measurement": "expression of differentiation markers", "setting": "[1]; liquid conditions (absence of stroma)", "value": "induced comparable changes, irrespective of the presence or absence of BM stroma"},
      {"measurement": "growth or response of tumors bearing WT versus Smo-KO stroma", "setting": "H929 Luc+ cells", "value": "not different"}
    ]}
  ]
}
